Measurements published in PMC9675441 (JCI Insight, 2022).

Target: T1, ISG20L2 (interferon-stimulated 20 kDa exonuclease-like 2) (Homo sapiens, UniProt Q9H9L3)
T1 construct: recombinant human ISG20L2 (rISG)
T1 sequence (Q9H9L3 1-353): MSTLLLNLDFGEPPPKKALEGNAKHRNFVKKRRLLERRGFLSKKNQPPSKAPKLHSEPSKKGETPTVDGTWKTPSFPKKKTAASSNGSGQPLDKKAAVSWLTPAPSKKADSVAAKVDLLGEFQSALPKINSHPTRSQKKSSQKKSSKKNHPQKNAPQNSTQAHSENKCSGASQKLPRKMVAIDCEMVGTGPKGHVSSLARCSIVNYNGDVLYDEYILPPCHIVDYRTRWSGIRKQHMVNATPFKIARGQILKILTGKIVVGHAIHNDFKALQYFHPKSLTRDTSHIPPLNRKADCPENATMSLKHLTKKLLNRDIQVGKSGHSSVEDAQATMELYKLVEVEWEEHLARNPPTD
Assay: SPR (Biacore X100, ISG20L2 immobilized on CM5 chip)
Format: binding

Kd | SMILES
26.7 µM | CC(C)C[C@H](NC(=O)[C@H](Cc1ccccc1)NC(=O)c1cnccn1)B(O)O [BTZ, bortezomib]
8.71 µM | CC(C)C[C@H](NC(=O)[C@H](CCc1ccccc1)NC(=O)CN1CCOCC1)C(=O)N[C@@H](Cc1ccccc1)C(=O)N[C@@H](CC(C)C)C(=O)[C@@]1(C)CO1 [CFZ, carfilzomib]
